Source: patent US20230167467A1, “METHODS AND COMPOSITIONS FOR THE PRODUCTION OF ISOBUTENE” (University of Alaska Anchorage, priority 2020, published 2023)

Tested on: Engineered strains of E. coli
Assay type: cell-based
[1] = after solvent exposure, vs positive control

CC(C)=O [acetone]
expression of accBC (fatty acid biosynthesis): downregulated | expression of bssRS (decreasing biofilm material): upregulated | expression of chaperone genes groLS and dnaJK: increased expression | expression of gad genes: increase in expression | expression of gadABCE (acid resistance via GABA production): upregulated | expression of glpABC (glycerol to glycerone phosphate): increased in expression | expression of heat shock proteins and chaperones hslJORUV: upregulation | expression of ibpAB and clpAB (protein protection and repair): increased | expression of marA: upregulated | change in expression of gene adiA [1]: 1.50 ± 0.91 | change in expression of gene adiC [1]: −0.54 ± 1.10 | change in expression of gene adiY [1]: −0.57 ± 0.71 | change in expression of gene bhsA [1]: 4.49 ± 0.62 | change in expression of gene bssR [1]: 2.34 ± .46 | change in expression of gene bssS [1]: 5.02 ± .88 | change in expression of gene clpA [1]: 1.92 ± .68 | change in expression of gene clpB [1]: 4.51 ± .69 | change in expression of gene clpP [1]: 1.39 ± 0.63 | change in expression of gene coaA [1]: −3.10 ± 1.0 | change in expression of gene coaD [1]: 0.05 ± 1.01 | change in expression of gene cspA [1]: −4.58 ± 0.64 | change in expression of gene cspB [1]: −5.17 ± 1.49 | change in expression of gene cspC [1]: −0.95 ± .98 | change in expression of gene cspD [1]: 2.52 ± 0.63 | change in expression of gene cspE [1]: −2.45 ± 0.72 | change in expression of gene cspF [1]: −5.06 ± 1.34 | change in expression of gene dhaK [1]: 0.26 ± 0.67 | change in expression of gene dhaL [1]: −0.41 ± 0.74 | change in expression of gene dnaJ [1]: 2.96 ± 0.74 | change in expression of gene dnaK [1]: 4.58 ± 0.66 | change in expression of gene fabA [1]: −0.85 ± 0.84 | change in expression of gene fabB [1]: 1.61 ± 0.72 | change in expression of gene fabD [1]: −1.74 ± 0.59 | change in expression of gene flgA [1]: −2.14 ± 1.68 | change in expression of gene flgB [1]: −4.07 ± 1.67 | change in expression of gene flgC [1]: −4.24 ± 2.06 | change in expression of gene flgD [1]: −4.39 ± 2 | change in expression of gene flgE [1]: −4.02 ± 1.30 | change in expression of gene flgF [1]: −2.98 ± 1.7 | change in expression of gene flgG [1]: −4.98 ± 1.68 | change in expression of gene flgH [1]: −2.24 ± 1.82 | change in expression of gene gabD [1]: 0.73 ± 1.41 | change in expression of gene gabP [1]: −1.06 ± 1.42 | change in expression of gene gabT [1]: 0.34 ± 1.38 | change in expression of gene gadA [1]: 4.57 ± 0.70 | change in expression of gene gadB [1]: 4.53 ± 0.82 | change in expression of gene gadC [1]: 4.83 ± 0.82 | change in expression of gene gadE [1]: 2.23 ± .62 | change in expression of gene gadW [1]: 1.58 ± 1 | change in expression of gene gadX [1]: 1.71 ± 0.59 | change in expression of gene gadY [1]: 0.05 ± 0.83 | change in expression of gene glpA [1]: 4.83 ± 0.91 | change in expression of gene glpB [1]: 2.81 ± 0.69 | change in expression of gene glpC [1]: 3.12 ± 0.87 | change in expression of gene groL [1]: 4.18 ± 0.58 | change in expression of gene groS [1]: 4.58 ± 0.51 | change in expression of gene hchA [1]: 4.64 ± 0.64 | change in expression of gene hslJ [1]: −0.10 ± 0.75 | change in expression of gene hslO [1]: 2.78 ± 0.69 | change in expression of gene hslR [1]: 3.01 ± 0.70 | change in expression of gene hslU [1]: 2.69 ± 0.59 | change in expression of gene hslV [1]: 2.24 ± 0.67 | change in expression of gene ibpA [1]: 5.64 ± 1.22 | change in expression of gene ibpB [1]: 6.70 ± 1.51 | change in expression of gene lhgO [1]: 1.82 ± 1.73 | change in expression of gene lipA [1]: −1.03 ± 0.69 | change in expression of gene lipB [1]: −1.11 ± 0.75 | change in expression of gene narG [1]: 2.69 ± 0.70 | change in expression of gene narH [1]: 2.94 ± 0.66 | change in expression of gene narI [1]: 1.48 ± 1.02 | change in expression of gene narJ [1]: 1.75 ± 0.74 | change in expression of gene narK [1]: 0.21 ± 0.96 | change in expression of gene potA [1]: −3.62 ± 0.91 | change in expression of gene potB [1]: −2.22 ± 1.43 | change in expression of gene potC [1]: −3.06 ± 1.45 | change in expression of gene pspA [1]: 2.10 ± 0.60 | change in expression of gene pspB [1]: 0.76 ± 0.80 | change in expression of gene rpoA [1]: −0.20 ± 0.47 | change in expression of gene rpoB [1]: −0.26 ± 0.43 | change in expression of gene rpoC [1]: −0.29 ± 0.43 | change in expression of gene rpoD [1]: 1.41 ± 0.72 | change in expression of gene rpoE [1]: −0.26 ± 0.66 | change in expression of gene rpoH [1]: 1.72 ± 0.55 | change in expression of gene rpoN [1]: −1.18 ± 0.54 | change in expression of gene rpoS [1]: 1.63 ± 0.51 | change in expression of gene rpoZ [1]: −1.83 ± 0.60 | change in expression of gene spy [1]: 1.90 ± 0.95 | change in expression of gene tatA [1]: −1.15 ± 0.57 | change in expression of gene tatB [1]: −1.35 ± 0.65 | change in expression of gene tatC [1]: −2.55 ± 1.23 | change in expression of gene tatD [1]: −1.90 ± 1.23 | change in expression of gene tatE [1]: 0.41 ± 0.70 | number of genes with significant changes in expression (vs control, Bon Ferroni corrected p-value<0.05): 399 genes
